Test results as given in patent EP0835871B1, “Benzo [b] thiophene compounds, intermediates, formulations, and methods” (ELI LILLY AND COMPANY, priority 1996, dated 1998).

Legend:
[1] = test system: Uterine Eosinophil Peroxidase (EPO); test: Uterine Eosinophil Peroxidase (EPO) Assay in ovariectomized rats; type: in vivo; design: unit not given here; settings: Vmaximum, * p<0.05
From the text: (§1) Seventy-five day old female Sprague Dawley rats (weight range of 200 to 225g) are obtained from Charles River Laboratories (Portage, MI). The animals are either bilaterally ovariectomized (OVX) or exposed to a Sham surgical procedure at Charles River Laboratories, and then shipped after one week. Upon arrival, they are housed in metal hanging cages in groups of 3 or 4 per cage and have ad libitum access to food (calcium content approximately 0.5%) and water for one week. Room temperature is maintained at 22.2° ± 1.7° C with a minimum relative humidity of 40%. The photoperiod in the room is 12 hours light and 12 hours dark.
(§2) Dosing Regimen Tissue Collection. After a one week acclimation period (therefore, two weeks post-OVX) daily dosing with test compound is initiated. 17α-ethynyl estradiol or the test compound are given orally, unless otherwise stated, as a suspension in 1% carboxymethylcellulose or dissolved in 20% cyclodextrin. Animals are dosed daily for 4 days. Following the dosing regimen, animals are weighed and anesthetized with a ketamine: Xylazine (2:1, V:V) mixture and a blood sample is collected by cardiac puncture. The animals are then sacrificed by asphyxiation with CO2, the uterus is removed through a midline incision, and a wet uterine weight is determined.
Uterine Eosinophil Peroxidase (EPO) Assay. Uteri are kept at 4° C until time of enzymatic analysis. The uteri are then homogenized in 50 volumes of 50 mM Tris buffer (pH - 8.0) containing 0.005% Triton X-100. Upon addition of 0.01% hydrogen peroxide and 10 mM o-phenylenediamine (final concentrations) in Tris buffer, increase in absorbance is monitored for one minute at 450 nm. The presence of eosonophils in the uterus is an indication of estrogenic activity of a compound. The maximal velocity of a 15 second interval is determined over the initial, linear portion of the reaction curve.

[2] = test system: MCF-7 breast adenocarcinoma cells (ATCC HTB 22); test: MCF-7 Proliferation Assay (tritiated thymidine uptake); type: cell-based; settings: MCF-7 cells, 48 hours with drug, tritiated thymidine pulse 4 hours
Procedure: MCF-7 Proliferation Assay
MCF-7 breast adenocarcinoma cells (ATCC HTB 22) were maintained in MEM (minimal essential medium, phenol red-free, Sigma, St. Louis, MO) supplemented with 10% fetal bovine serum (FBS) (V/V), L-glutamine (2 mM), sodium pyruvate (1 mM), HEPES {(N-[2-hydroxyethyl]piperazine-N'-[2-ethanesulfonic acid] 10 mM}, non-essential amino acids and bovine insulin (1 ug/mL) (maintenance medium). Ten days prior to assay, MCF-7 cells were switched to maintenance medium supplemented with 10% dextran coated charcoal stripped fetal bovine serum (DCC-FBS) assay medium) in place of 10% FBS to deplete internal stores of steroids. MCF-7 cells were removed from maintenance flasks using cell dissociation medium [Ca++/Mg++ free HBSS (phenol red-free) supplemented with 10 mM HEPES and 2 mM EDTA]. Cells were washed twice with assay medium and adjusted to 80,000 cells/mL. Approximately […] (8,000 cells) were added to flat-bottom microculture wells (Costar 3596) and incubated at 37° C in a 5% CO2 humidified incubator for 48 hours to allow for cell adherence and equilibration after transfer. Serial dilutions of drugs or DMSO as a diluent control were prepared in assay medium and […] to triplicate microcultures followed by […] assay medium for a final volume of […]. After an additional 48 hours at 37° C in a 5% CO2 humidified incubator, microcultures were pulsed with tritiated thymidine (1 µCi/well) for 4 hours. Cultures were terminated by freezing at -70° C for 24 hours followed by thawing and harvesting of microcultures using a Skatron Semiautomatic Cell Harvester. Samples were counted by liquid scintillation using a Wallac BetaPlace β counter. The compounds of formula I are active and potent in inhibiting the tumor cell growth, see: Table 2.

[3] = test system: female Sprague Dawley rats; test: Uterine wet weight in the post-menopausal (ovariectomized rat) model, 4 days of oral dosing; type: in vivo; settings: % increase versus the ovariectomized controls, * p<0.05
Procedure: (§3) In the examples illustrating the methods, a post-menopausal model was used in which effects of different treatments upon circulating lipids were determined.
as §1, §2

Serum cholesterol = Serum cholesterol analysis in ovariectomized rats; type: in vivo; settings: decrease versus ovariectomized controls, * p<0.05
Procedure: as §3, §1, §2
Cholesterol Analysis. Blood samples are allowed to clot at ambient temperature for 2 hours, and serum is obtained following centrifugation for 10 minutes at 3000 rpm. Serum cholesterol is determined using a Boehringer Mannheim Diagnostics high performance cholesterol assay. Briefly, the cholesterol is oxidized to cholest-4-en-3-one and hydrogen peroxide. The hydrogen peroxide is then reacted with phenol and 4-aminophenazone in the presence of peroxidase to produce a p-quinone imine dye, which is read spectrophotemetrically at 500 nm. Cholesterol concentration is then calculated against a standard curve.

Uterine EPO (Vmax) ([1]; 0.1 mg/kg PO)	Uterine EPO (Vmax) ([1]; 1 mg/kg PO)	Uterine EPO (Vmax) ([1]; 10 mg/kg PO)	IC50 [2]	Uterine Wt. (% Inc.) ([3]; 0.1 mg/kg PO)	Uterine Wt. (% Inc.) ([3]; 1 mg/kg PO)	Uterine Wt. (% Inc.) ([3]; 10 mg/kg PO)	IC50 ([2]; Homo sapiens, MCF7)	Uterine EPO (Vmax) ([1]; dose printed as 0. mg/kg PO)	Uterine Wt. (% Inc.) ([3]; dose printed as 0. mg/kg PO)	Structure (SMILES)	Serum Cholesterol (% Dec.) (Serum cholesterol; 0.1 mg/kg PO)	Serum Cholesterol (% Dec.) (Serum cholesterol; 1 mg/kg PO)	Serum Cholesterol (% Dec.) (Serum cholesterol; 10 mg/kg PO)	Serum Cholesterol (% Dec.) (Serum cholesterol; dose printed as 0. mg/kg PO)
3.3	3.3	4.8	45 nM	11.8%	21.7%	47.1* %	–	–	–	CC(C)COC(=O)c1ccc2c(C(=O)c3ccc(OCCN4CCCCC4)cc3)c(-c3ccc(O)cc3)sc2c1 [Example 3]	-2.4%	8.7%	58.0* %	–
1.2	2.1	5.4	–	18.8%	51.8* %	69.4* %	60 nM	–	–	CC(=O)c1ccc2c(C(=O)c3ccc(OCCN4CCCCC4)cc3)c(-c3ccc(O)cc3)sc2c1 [Example 5, [2-(4-Hydroxyphenyl)-6-acetylbenzo[b]thien-3-yl][4-[2-(1-piperidinyl)ethoxy]phenyl]methanone]	-6.3%	20.4%	45.4* %	–
3.3	3.0	3.6	–	18.8%	27.2%	29.6* %	–	–	–	Cl.O=C(O)c1ccc2c(C(=O)c3ccc(OCCN4CCCCC4)cc3)c(-c3ccc(O)cc3)sc2c1 [Example 4, [2-(4-Hydroxyphenyl)-6-carboxybenzo[b]thien-3-yl][4-[2-(1-piperidinyl)ethoxy]phenyl]methanone Hydrochloride]	0.6%	10.4%	44.9* %	–
4.5	4.8	7.5	–	46.9* %	19.1%	45.2* %	40 nM	–	–	COC(=O)c1ccc2c(C(=O)c3ccc(OCCN4CCCCC4)cc3)c(-c3ccc(O)cc3)sc2c1.Cl [Example 1, [2-(4-Hydroxyphenyl)-6-methoxycarbonylbenzo[b]thien-3-yl][4-[2-(1-piperidinyl)ethoxy]phenyl]methanone Hydrochloride]	-8.6%	42.5* %	56.1* %	–
3.9	4.8	4.8	–	14.3%	27.8%	22.5%	20 nM	–	–	C#Cc1ccc2c(C(=O)c3ccc(OCCN4CCCCC4)cc3)c(-c3ccc(O)cc3)sc2c1 [Example 6, [2-(4-Hydroxyphenyl)-6-ethynylbenzo[b]thien-3-yl][4-[2-(1-piperidinyl)ethoxy]phenyl]methanone]	39.4* %	58.7* %	65.8* %	–
–	–	–	–	–	–	–	–	142.4*	171.2* %	C#C[C@]1(O)CC[C@H]2[C@@H]3CCc4cc(O)ccc4[C@H]3CC[C@@]21C [EE2, 17-α-Ethynyl-estradiol, reference compound]	–	–	–	85.1* %

Structure (SMILES)	Uterine EPO (Vmax) ([1]; 0.1 mg/kg PO)	Uterine EPO (Vmax) ([1]; 1 mg/kg PO)	Uterine EPO (Vmax) ([1]; 10 mg/kg PO)	IC50 [2]	Uterine Wt. (% Inc.) ([3]; 0.1 mg/kg PO)	Uterine Wt. (% Inc.) ([3]; 1 mg/kg PO)	Uterine Wt. (% Inc.) ([3]; 10 mg/kg PO)	IC50 ([2]; Homo sapiens, MCF7)	Uterine EPO (Vmax) ([1]; dose printed as 0. mg/kg PO)	Uterine Wt. (% Inc.) ([3]; dose printed as 0. mg/kg PO)	Serum Cholesterol (% Dec.) (Serum cholesterol; 0.1 mg/kg PO)	Serum Cholesterol (% Dec.) (Serum cholesterol; 1 mg/kg PO)	Serum Cholesterol (% Dec.) (Serum cholesterol; 10 mg/kg PO)	Serum Cholesterol (% Dec.) (Serum cholesterol; dose printed as 0. mg/kg PO)
CCCCOC(=O)c1ccc2c(C(=O)c3ccc(OCCN4CCCCC4)cc3)c(-c3ccc(O)cc3)sc2c1 [Example 2, [2-(4-Hydroxyphenyl)-6-n-butoxycarbonylbenzo[b]thien-3-yl][4-[2-(1-piperidinyl)ethoxy]phenyl]methanone]	2.4	0.0	4.8	–	19.4%	16.8%	52.5* %	45 nM	–	–	-1.2%	26.7%	55.6* %	–
